In patent publication US20220340983A1, “SYSTEMS AND ASSAYS FOR IDENTIFYING PU.1 INHIBITORS” (Massachustts Institute of Technology, priority 2019, published 2022):
pIC50: −log10 of the molar value.

Tests used:
[1] = system: PU.1 dependent gene expression; assay: RT-qPCR of mRNA levels in BV2 PU.1-Luciferase cells (validation round 3); format: cell-based, mouse; details: 2-day treatment
Method: The Asinex1 and ChemDiv6 libraries contain molecules with unknown biological properties, but with low toxicity, high stability, and a broad structural diversity used to generate structure-activity-relationships (SAR) of the PU.1 inhibitors. […] In order to obtain the SAR, three rounds of validation were performed. In round 1, false-positive, non-specific luciferase quencher molecules were excluded using the commercially available HEK293 CMV-Luciferase line that constitutively expresses luciferase under the CMV promoter. In round 2, weak (non-significant) hits were eliminated according to degree of PU.1 inhibition in the absence of cell death. In round 3, drugs were selected that reduce PU.1-dependent gene expression with RT-qPCR.

PU.1 = molecular target: T1, PU.1 (Mus musculus, UniProt P17433); assay: Luciferase assay (luminescence) in BV2 PU.1-Luciferase reporter cells; format: cell-based; details: luminescence reduction in BV2 PU.1-Luciferase cells, concentration-response, Hill's equation
T1 construct: endogenous in cells; host or cells: BV2 PU.1-Luciferase (mouse microglial BV2 with a 5xLBB-luciferase reporter integrated at ROSA26)
Source text: PU.1 belongs to a group of transcription factors that all bind to the middle 5′-GGAA-3′ sequence. The flanking A/T rich sequence is crucial for conferring PU.1 selective binding. The flanking sequence requires unique structural properties of PU.1 and can therefore be targeted by drugs acting as allosteric inhibitors that prevent PU.1 from binding to the LBB. In order to achieve robust PU.1 binding, five tandem copies of the LBBs (5×LBB) were inserted into the luciferase promoter of the pGL4.23 plasmid. The region containing the five LBBs (5×LBB) was then subcloned into the pROSA26-1 plasmid (together with a PGKneo bpA plasmid for Neomycin/G418 resistance) that allows stable integration in chromosome 6 of the immortalized mouse microglial BV2 cell line (FIG. 2B). The stable cell line was created by selection with G418.
The BV2 PU.1-Luciferase cells (referred to as “cells” from here onward) were plated into a 384-well plate, using an automatic dispenser, 2000 cells per well in 30 μL of media composed of RPMI (Sigma-Aldrich), 10% FBS, 1% PenStrep (50 mg/mL) and 1% G418 (50 mg/mL) was plated. A robotic arm was used to transfer compounds in a 384-well format using a pin array into the plate containing the cells (here, 33 nL was transferred from a drug library containing 10 mM concentration of drugs for a final concentration of 10 μM per well). For reproducibility, each pin array with 384 compounds was added to 4 plates of cells. […] Subsequently, automatic of 30 μL of BrightGlo (Promega) was dispensed into 2 of the 4 plates, in order to lyse the cells and drive the luminescence reaction whereafter the luminescence intensity was measured by a plate reader (Perkin Elmer EnVision). The two other plates were fixed by automatically dispensing 30 μL of 10% formaldehyde with 2μL Hoechst per 1 mL formaldehyde which were left at room temperature for one hour, followed by plate reading (Acumen (TTPLabTech)). A compound transfer and treatment would be repeated if reproducibility between the luminescence plates and/or the fixed Hoechst plates was lacking. The drugs were selected and ranked according to the criteria described in FIG. 13. Luminescence values used were corrected for crosstalk. Hoechst values were total fluorescence area per well. Determination of a positive hit considered both the reduction of luminescence as well as a possible confounding reduction in cell viability. The formula used was y=(value−meanvalue)/stddev. […] Compounds were excluded if cell viability was reduced >2 standard deviations from the mean, using the same formula. The positive hits were then validated in multiple steps in order to identify true PU.1 inhibitors.
The degree of luminescence reduction of the hits was plotted with significant effective area under the curve in order to obtain an IC50.

Row | pIC50 (PU.1) | Structure (SMILES) | mRNA levels Apoe [1] | mRNA levels IL1β [1] | mRNA levels Lucif. [1] | mRNA levels Spi1 [1] | mRNA levels Trem2 [1] | mRNA levels Tyrobp [1]
1 | 5.44 | CCc1ccc(NC(=O)Cn2c(=O)oc3cc(S(=O)(=O)N4CCCCCC4)ccc32)cc1 [Compound 2A7] | 0.886 multiples of 1× | 0.435 multiples of 1× | 0.328 multiples of 1× | 0.739 multiples of 1× | 0.942 multiples of 1× | 0.928 multiples of 1×
2 | 5.64 | CC(=O)c1c(C)oc2ccc(N(C(=O)Oc3ccccc3)S(=O)(=O)c3ccc(C(C)(C)C)cc3)cc12 [Compound 1A2] | 0.858 multiples of 1× | 1.054 multiples of 1× | 0.324 multiples of 1× | 0.915 multiples of 1× | 1.073 multiples of 1× | 1.093 multiples of 1×
3 | 5.64 | CCn1c(=O)c2cc(C(=O)Nc3cc(OC)c(OC)c(OC)c3)sc2c2ccccc21 [Compound 1G9] | 1.217 multiples of 1× | 0.582 multiples of 1× | 0.485 multiples of 1× | 0.989 multiples of 1× | 0.713 multiples of 1× | 1.053 multiples of 1×
4 | 6.32 | Cc1ccccc1NC(=O)C(C)Sc1nc2ccccc2c(=O)n1C (centres unmarked) [Compound D04] | 0.841 multiples of 1× | 0.866 multiples of 1× | 0.519 multiples of 1× | 0.865 multiples of 1× | 0.976 multiples of 1× | 1.071 multiples of 1×
5 | 5.63 | CCOC(=O)c1oc2ccc(S(=O)(=O)n3nc(-c4ccccc4OC)cc3N)cc2c1C [Compound 1H7] | 0.908 multiples of 1× | 1.017 multiples of 1× | 0.524 multiples of 1× | 1.022 multiples of 1× | 1.100 multiples of 1× | 1.011 multiples of 1×

Second part, the compound before the results:

Row | Structure (SMILES) | pIC50 (PU.1) | mRNA levels Apoe [1] | mRNA levels IL1β [1] | mRNA levels Lucif. [1] | mRNA levels Spi1 [1] | mRNA levels Trem2 [1] | mRNA levels Tyrobp [1]
6 | CCCC(=O)Nc1nnc(SCc2cc(=O)c3ccc(C)cc3[nH]2)s1 [Compound 2E6] | 5.79 | 1.170 multiples of 1× | 0.810 multiples of 1× | 0.379 multiples of 1× | 1.046 multiples of 1× | 1.262 multiples of 1× | 1.347 multiples of 1×
7 | C[C@H]1C[C@H]2[C@@H]3CCC4=CC(=O)C=C[C@]4(C)[C@@]3(F)[C@@H](O)C[C@]2(C)[C@@]1(O)C(=O)CO [Betamethasone, reference compound] | – | 1.615 multiples of 1× | 0.379 multiples of 1× | – | 1.235 multiples of 1× | 1.137 multiples of 1× | 1.079 multiples of 1×
8 | C[C@@H]1C[C@H]2[C@@H]3CCC4=CC(=O)C=C[C@]4(C)[C@@]3(F)[C@@H](O)C[C@]2(C)[C@@]1(O)C(=O)CO [Dexamethasone, reference compound] | – | 1.325 multiples of 1× | 1.041 multiples of 1× | 0.373 multiples of 1× | 0.955 multiples of 1× | 0.751 multiples of 1× | 1.010 multiples of 1×
9 | C[C@]12CCC(=O)C=C1CC[C@H]1[C@@H]3CC[C@](O)(C(=O)CO)[C@@]3(C)C[C@H](O)[C@@]12F [Fludrocortisone, reference compound] | – | 1.493 multiples of 1× | 1.764 multiples of 1× | 1.171 multiples of 1× | 0.900 multiples of 1× | 0.895 multiples of 1× | 1.082 multiples of 1×
